Reference: patent publication US12662490B2, “Heterocyclic compounds” (Hoffmann-La Roche Inc., priority 2019, dated 2026)

These compounds were tested against T1, MAGL (Homo sapiens, UniProt Q99685) (assay: 2-AG assay (MAGL inhibitory activity; hydrolysis of 2-arachidonoylglycerol to arachidonic acid followed by mass spectrometry)). Settings: 15 min preincubation at RT, 8 μM 2-arachidonoylglycerol, 30 min at RT, RapidFire MS readout.
T1 sequence (Q99685 1-303): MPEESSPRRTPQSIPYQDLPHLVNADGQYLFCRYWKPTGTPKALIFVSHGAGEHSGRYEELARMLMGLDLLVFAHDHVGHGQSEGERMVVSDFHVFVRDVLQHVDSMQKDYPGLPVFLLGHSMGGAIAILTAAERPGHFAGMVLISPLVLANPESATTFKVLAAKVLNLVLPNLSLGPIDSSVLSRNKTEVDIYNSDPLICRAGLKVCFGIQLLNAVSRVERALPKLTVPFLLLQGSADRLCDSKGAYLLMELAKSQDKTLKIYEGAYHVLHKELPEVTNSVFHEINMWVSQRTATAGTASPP
Type: biochemical
Outline: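 Compounds (final 12.5 μM to […], 3-fold steps) preincubated 15 min at RT with MAGL ([…]) in 50 mM TRIS, 1 mM EDTA, Tween buffer. Reaction started with 8 μM 2-arachidonoylglycerol, run 30 min at RT, quenched with ACN containing d8-arachidonic acid. Arachidonic acid quantified by RapidFire SPE-triple quadrupole MS (negative ESI), activity from arachidonic acid/d8 ratio.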

| SMILES | IC50 |
| --- | --- |
| C/C=C/c1cc([C@@H]2CN3CCN(C(=O)c4cccc(OC)c4Cl)C[C@H]3CO2)ccc1F (racemic) [Example 10, (2-chloro-3-methoxy-phenyl)-[(3R,9aS)-3-[4-fluoro-3-[rac-(E)-prop-1-enyl]phenyl]-3,4,6,7,9,9a-hexahydro-1H-pyrazino[2,1-c][1,4]oxazin-8-yl]methanone] | 179 nM |
| COc1cccc(C(=O)N2CCN3C[C@@H](c4ccc(C(F)(F)F)nn4)OC[C@@H]3C2)c1Cl [Example 89, (2-chloro-3-methoxy-phenyl)-[(3S,9aS)-3-[6-(trifluoromethyl)pyridazin-3-yl]-3,4,6,7,9,9a-hexahydro-1H-pyrazino[2,1-c][1,4]oxazin-8-yl]methanone] | 2030 nM |
| O=C(c1cccc(-c2c[nH]nc2F)c1Cl)N1CCN2C[C@H](c3ccc(F)c(F)c3)OC[C@@H]2C1 [Example 96, [(3S,9aS)-3-(3,4-difluorophenyl)-3,4,6,7,9,9a-hexahydro-1H-pyrazino[2,1-c][1,4]oxazin-8-yl]-[2-chloro-3-(3-fluoro-1H-pyrazol-4-yl)phenyl]methanone] | 1240 nM |
| Cc1cccc(C(=O)N2CCN3C[C@@H](c4ccc(F)c(Cl)c4)OC[C@@H]3C2)c1C#N [Example 20, 2-[(3R,9aS)-3-(3-chloro-4-fluoro-phenyl)-3,4,6,7,9,9a-xahydro-1H-pyrazino[2,1-c][1,4]oxazine-8-carbonyl]-6-methyl-benzonitrile] | 121 nM |
| O=C1CN(c2cccc(C(=O)N3CCN4C[C@@H](c5ccc(F)c(Cl)c5)OC[C@@H]4C3)c2Cl)CCN1 [Example 126, 4-[3-[(3R,9aS)-3-(3-chloro-4-fluoro-phenyl)-3,4,6,7,9,9a-hexahydro-1H-pyrazino[2,1-c][1,4]oxazine-8-carbonyl]-2-chloro-phenyl]piperazin-2-one] | 96.2 nM |
| O=C(c1cccc(-c2n[nH]cc2F)c1Cl)N1CCN2C[C@@H](c3cc(Cl)c[nH]c3=O)OC[C@@H]2C1 [Example 140, 3-[(3R,9aS)-8-[2-chloro-3-(4-fluoro-1H-pyrazol-3-yl)benzoyl]-3,4,6,7,9,9a-hexahydro-1H-pyrazino[2,1-c][1,4]oxazin-3-yl]-5-chloro-1H-pyridin-2-one] | 277 nM |
| O=C(c1cccc(-c2n[nH]c(=O)o2)c1Cl)N1CCN2C[C@@H](c3ccc(F)c(Cl)c3)OC[C@@H]2C1 [Example 134, 5-[3-[(3R,9aS)-3-(3-chloro-4-fluoro-phenyl)-3,4,6,7,9,9a-hexahydro-1H-pyrazino[2,1-c][1,4]oxazine-8-carbonyl]-2-chloro-phenyl]-3H-1,3,4-oxadiazol-2-one] | 144 nM |
| COc1cccc(C(=O)N2CCN3C[C@@H](c4cncc(Cl)c4)OC[C@@H]3C2)c1Cl (racemic) [Example 59, (2-chloro-3-methoxy-phenyl)-[rac-(3R,9aS)-3-(5-chloro-3-pyridyl)-3,4,6,7,9,9a-hexahydro-1H-pyrazino[2,1-c][1,4]oxazin-8-yl]methanone] | 544 nM |
| N#Cc1cc(-c2cc(F)cc(C(=O)N3CCN4C[C@H](c5c[nH]c(C(F)(F)F)cc5=O)OC[C@@H]4C3)c2Cl)c[nH]1 [Example 151, 4-[3-[(3S,9aS)-3-[4-oxo-6-(trifluoromethyl)-1H-pyridin-3-yl]-3,4,6,7,9,9a-hexahydro-1H-pyrazino[2,1-c][1,4]oxazine-8-carbonyl]-2-chloro-5-fluoro-phenyl]-1H-pyrrole-2-carbonitrile] | 575 nM |

Stronger by IC50, values ahead:

| IC50 | SMILES |
| --- | --- |
| 57.6 nM | Cc1[nH]c(=O)ccc1-c1cccc(C(=O)N2CCN3C[C@@H](c4ccc(F)c(Cl)c4)OC[C@@H]3C2)c1Cl [Example 124, 5-[3-[(3R,9aS)-3-(3-chloro-4-fluoro-phenyl)-3,4,6,7,9,9a-hexahydro-1H-pyrazino[2,1-c][1,4]oxazine-8-carbonyl]-2-chloro-phenyl]-6-methyl-1H-pyridin-2-one] |
| 49.7 nM | Cc1c(-c2cccc(C(=O)N3CCN4C[C@@H](c5ccc(F)c(Cl)c5)OC[C@@H]4C3)c2Cl)cnn1C [Example 39, [(3R,9aS)-3-(3-chloro-4-fluoro-phenyl)-3,4,6,7,9,9a-hexahydro-1H-pyrazino[2,1-c][1,4]oxazin-8-yl]-[2-chloro-3-(1,5-dimethylpyrazol-4-yl)phenyl]methanone] |
| 38.2 nM | O=C(c1cccc(-c2c[nH]nc2F)c1Cl)N1CCN2C[C@@](O)(c3ccc(C(F)(F)F)cn3)OC[C@@H]2C1 [Example 85, [(3S,9aS)-3-hydroxy-3-[5-(trifluoromethyl)-2-pyridyl]-1,4,6,7,9,9a-hexahydropyrazino[2,1-c][1,4]oxazin-8-yl]-[2-chloro-3-(3-fluoro-1H-pyrazol-4-yl)phenyl]methanone] |
| 33.1 nM | O=C(c1cccc(-c2c[nH]c(=O)o2)c1Cl)N1CCN2C[C@@H](c3ccc(Cl)c(Cl)c3)OC[C@@H]2C1 [Example 118, 5-[3-[(3R,9aS)-3-(3,4-dichlorophenyl)-3,4,6,7,9,9a-hexahydro-1H-pyrazino[2,1-c][1,4]oxazine-8-carbonyl]-2-chloro-phenyl]-3H-oxazol-2-one] |
| 30.7 nM | COc1cccc(C(=O)N2CCN3C[C@@H](c4cc(C(F)(F)F)c(Cl)cn4)OC[C@@H]3C2)c1Cl [Example 98, (2-chloro-3-methoxy-phenyl)-[(3S,9aS)-3-[5-chloro-4-(trifluoromethyl)-2-pyridyl]-3,4,6,7,9,9a-hexahydro-1H-pyrazino[2,1-c][1,4]oxazin-8-yl]methanone] |
| 21.6 nM | COc1cccc(C(=O)N2CCN3CC(c4ccc(F)c(Cl)c4)SC[C@@H]3C2)c1Cl (single isomer, unassigned) [Example 162] |
| 15.8 nM | O=C(c1cccc(-c2c[nH]nc2F)c1Cl)N1CCN2CC(c3ccc(C(F)(F)F)nc3)OC[C@@H]2C1 (mixture of isomers) [Example 68, [(9aS)-3-[6-(trifluoromethyl)-3-pyridyl]-3,4,6,7,9,9a-hexahydro-1H-pyrazino[2,1-c][1,4]oxazin-8-yl]-[2-chloro-3-(3-fluoro-1H-pyrazol-4-yl)phenyl]methanone] |
| 15.5 nM | O=C(c1cccc(-c2cnco2)c1Cl)N1CCN2C[C@@](O)(c3ccc(F)c(Cl)c3)OC[C@@H]2C1 [Example 76, [(3R,9aS)-3-(3-chloro-4-fluoro-phenyl)-3-hydroxy-1,4,6,7,9,9a-hexahydropyrazino[2,1-c][1,4]oxazin-8-yl]-(2-chloro-3-oxazol-5-yl-phenyl)methanone] |
| 14.6 nM | COc1cccc(C(=O)N2CCN3C[C@@H](c4ccc(F)c(Cl)c4)OC[C@@H]3C2)c1Br (racemic) [Example 2, (2-bromo-3-methoxy-phenyl)-[rac-(3R,9aS)-3-(3-chloro-4-fluoro-phenyl)-3,4,6,7,9,9a-hexahydro-1H-pyrazino[2,1-c][1,4]oxazin-8-yl]methanone] |
| 10.8 nM | O=C(c1cc(F)cc(-c2cc[nH]c(=O)c2)c1Cl)N1CCN2C[C@@H](c3ccc(F)c(Cl)c3)OC[C@@H]2C1 [Example 114, 4-[3-[(3R,9aS)-3-(3-chloro-4-fluoro-phenyl)-3,4,6,7,9,9a-hexahydro-1H-pyrazino[2,1-c][1,4]oxazine-8-carbonyl]-2-chloro-5-fluoro-phenyl]-1H-pyridin-2-one] |
| 7.6 nM | O=C(c1cccc(-c2c[nH]nc2F)c1Cl)N1CCN2C[C@@H](c3ccc(F)c(F)c3)OC[C@@H]2C1 [Example 95, [(3R,9aS)-3-(3,4-difluorophenyl)-3,4,6,7,9,9a-hexahydro-1H-pyrazino[2,1-c][1,4]oxazin-8-yl]-[2-chloro-3-(3-fluoro-1H-pyrazol-4-yl)phenyl]methanone] |
